Experimental findings from patent publication US20080254152A1, “Methods for Reducing the Effects of Stress on Skin Condition” (priority 2003, published 2008) are described below.

SMILES strings stand for the structures.

For test [1], the system named is ICAM-1 expression in HUVECs. Nature of the test: ICAM-1 expression in HUVECs pre-treated 5 days with dexamethasone, then oxidatively stressed with PMA (ELISA). It counts as cell-based, Human. To be noted: chronic 1 μM glucocorticoid 5 days, then 1 μM PMA; HUVEC; FIG. 1. How it is done:
(§1) An in vitro model has been developed to investigate the impact of chronic stress on the inflammatory status of endothelial cells. • a. Cells are grown in 6-well (9.5 cm^2) plates. • b. […] Tissue culture supernatant and cell pellets are harvested at timepoint T0. • d. The cells are oxidatively stressed with 1 μM Phorbol Myristate Acetate (PMA). • e. Tissue culture supernatant and cell pellets were harvested at 6, 24 and 48 hours (T6, T24 and T48, respectively) post-PMA treatment. • f. All tissue culture supernatant was assayed for Lactate Dehydrogenase (LDH), as a measure of cytotoxicity, and Interleukin-6 synthesis. • g. All cells were counted (Beckman Coulter Counter) and pelleted and cell lysate assayed for ICAM-1 expression (Intra Cellular Adhesion Molecule 1).
HUVEC cells (Human umbilical vein endothelial cells, TCS Biologicals) were cultured and passaged in EGM-2 (Endothelial growth medium, Biowhittaker) supplemented with heparin, VEGF (vascular endothelial growth factor), gentamicin sulphate, ascorbic acid, HEGF (Human endothelial growth factor), hydrocortisone, HFGF-B (Human fibroblast growth factor B), R3-IGF-1 (long R insulin-like growth factor 1) and FBS (foetal bovine serum).
Cells were routinely plated out in 6-well tissue culture dishes, at a seeding density of ˜5000 cells/cm^2 in 2 ml complete medium/well, 48 hours before starting the experiment, and incubated at 37° C. in 5% CO2.
Pre-treatment and test solutions were prepared in EGM-2 containing all supplements except hydrocortisone.
Following this, the cells were oxidatively stressed for 24 hours with 1 μM PMA (Sigma P8139).
Receptor antagonists were added to the cells during the pre-treatment period. These included the Glucocorticoid Receptor Antagonist; 2 μM Mifepristone (Sigma M8046) and two CRH receptor antagonists; 200 nM Astressin (Sigma A4933) and 200 nM α-helical CRF peptide antagonist (Sigma C2917).
Any change in cell morphology was noted before the cells were harvested. Both the tissue culture supernatant and the endothelial cells were harvested after the five-day pre-treatment period (T0), at 6 hours and 24 hours after addition of PMA (T6 and T24) and at 24 hours after removal of the PMA (T48). All tissue culture supernatants were stored at −20° C.
All cell pellets were lysed on ice for 30 minutes in 1 ml cell lysis buffer per 2.5×10^6 cells. The lysis buffer contained 1% NP-40, 0.1% sodium deoxycholate, 0.1% SDS, 6 mM sodium chloride and 0.05M Tris at pH 7.6. Protease inhibitor cocktail ([…]; Sigma P8340) was added prior to use at a level of 10 μl per ml of lysis buffer. The partially lysed cell pellets were completely homogenised with a pellet pestle and unwanted cell debris removed by centrifugation for 20 minutes at 20,000 g at 4° C. The clarified cell lysate was frozen at −80° C. until needed.
The total protein concentration of each cell lysate was measured using the Pierce BCA protein assay kit. A set of eight standard solutions ranging from 0 to 1200 μg/ml protein was prepared from the supplied 2 mg/ml BSA stock solution. 10 μl of standard or cell lysate was added to duplicate wells of a flat-bottomed, 96-well microtitre plate. The reagent solution was prepared according to the kit instructions from 50 parts reagent A and 1 part reagent B. 200 μl of the final reagent was added to each well of the microtitre plate. The plate was mixed, covered and incubated at 37° C. for 30 minutes and absorbance read at 562 nm.
ICAM-1 protein in each cell lysate was estimated using the Human sICAM-1 DuoSet ELISA kit (R&D Systems DY720) according to the manufacturer's instructions.
The capture antibody was diluted to a final concentration of 4 μg/ml in PBS and 100 μl was used to coat each well of a 96-well microtitre plate overnight at room temperature. The plate was then washed three times with wash buffer (0.05% Tween 20 in PBS).
For orientation: An ELISA detects its analyte on a solid surface through an enzyme-linked reagent.

The subject of test [2] is IL-6 expression by Human Umbilical Vein Endothelial Cells. Kind of test: IL-6 ELISA of HUVEC tissue culture supernatant. It counts as cell-based. The following applies: without PMA. How it is done:
as §1

Test [3] has as its system MMP-1 expression in human neonatal dermal fibroblast cells. Kind of test: Active MMP-1 in neonatal-derived human dermal fibroblasts after chronic dexamethasone and PMA. It counts as cell-based. To be noted: for Suppression of MMP-1 synthesis and secretion vs control, untreated cells: chronic 1 μM dexamethasone 5 days then 1 μM PMA, neonatal fibroblasts. How it is done:
(§2) In this study, to understand better the effect of chronic stress on dermal matrix remodelling in the skin, we have therefore measured changes in markers of dermal matrix degradation (MMP-1) and dermal matrix synthesis (Procollagen I) in chronically glucocorticoid-treated primary human dermal fibroblasts, following acute stress with PMA. The experimental approach is similar to that described in example 1 except that the cells tested are dermal fibroblasts and cells are assayed for expression of procollagen-1, MMP-1 and MMP-9 expression.
(§3) Primary human dermal fibroblast cells were cultured and passaged in DMEM (Gibco) supplemented with 10% FBS (foetal bovine serum). Cells were routinely plated out in 6-well tissue culture dishes, at a seeding density of ˜5000 cells/cm^2 in 2 ml complete medium/well for 24 hours, and incubated at 37° C. in 5% CO2. Media was removed and cells grown in DMEM & 1% FBS, 24 hours prior to treatments.
(§4) Pre-treatment and test solutions were prepared in DMEM containing low serum (1% FBS). […] Following this, the cells were oxidatively stressed for 24 hours with 1 μM PMA (Sigma P8139).
(§5) MMP-1 and MMP-9 protein in each cell supernatant was estimated using the Human active MMP-1 and MMP-9 Fluorokine enzyme kit (R&D Systems F1M00 and F9M00, respectively), according to the manufacturer's instructions.
(§6) Six MMP-1 and MMP-9 standards were prepared in calibrator diluent at concentrations ranging from 0.39 to 12.5 ng/ml and 0.25 to 16 ng/ml, respectively. 100 μl of assay diluent and 150 μl of tissue culture supernatant or standard was added to duplicate wells. The plate was incubated at room temperature for 3 hours on a horizontal orbital plate shaker before being washed four times with wash buffer. 200 μl of APMA was added to each well and the plate incubated at 37° C. for 2 hours in a humidified environment and protected from the light. The plate was washed as before. Each well received 200 μl of substrate solution and the plate incubated at 37° C. for 17-20 hours in a humidified environment and protected from the light. The relative fluorescence unit (RFU) of each well was determined using a fluorescence plate set with 1×20 mS integration time, plate speed ˜6; excitation wavelength set to 320 nm and emission wavelength set to 405 nm.
(§7) A standard curve was plotted of mean RFU versus MMP-1 and MMP-9 concentration (respectively), and the line of best fit calculated by regression analysis. The unknown concentration of either active MMP-1 or MMP-9 protein in all of the samples was estimated from this.
The same methods were used as described in Example 2, except that various test agents were added to the cells during the pre-treatment period.

For test [4], the system named is MMP-1 expression in human adult-derived dermal fibroblast cells. Kind of test: Active MMP-1 in adult-derived human dermal fibroblasts after chronic dexamethasone and PMA. It counts as cell-based. To be noted: for Suppression of MMP-1 synthesis vs control, untreated cells: chronic dexamethasone then 1 μM PMA, adult fibroblasts. On the procedure:
as §2, §3, §4, §5, §6, §7

On to `C[C@@H]1C[C@H]2[C@@H]3CCC4=CC(=O)C=C[C@]4(C)[C@@]3(F)[C@@H](O)C[C@]2(C)[C@@]1(O)C(=O)CO` [Dexamethasone], for which, in test [1], the “Induction of ICAM-1 synthesis after PMA, glucocorticoid pre-treated vs not pre-treated cells” value is listed as “significantly greater”. In test [2], the “IL-6 secretion with glucocorticoid alone” value is reported as “did not cause increased secretion of IL-6”. The “Level of active MMP-1” value in test [3] (GC-treated neonate fibroblasts) is 15 ng/mL; in test [4] (GC-treated adult fibroblasts), around 25 ng/mL. Also, the “Suppression of MMP-1 synthesis and secretion vs control, untreated cells” value in test [3] (T6) is listed as around 60%; in test [3] (T24) it was 80%; in test [3] (T48) it was 70%. The figures for the “Suppression of MMP-1 synthesis vs control, untreated cells” value in test [4] (T6), in test [4] (T24) and in test [4] (T48) were around 85%, 10% and 80%, respectively.
